Test results: patent publication US20140039044A1, “Hydroxylated Polymethoxyflavone Compositions” (WLLGEN, INC., priority 2006, published 2014)
Read-outs that look alike come from different tables or passages of the source.

Experiments:
Assay type in all cases: cell-based, human
[1] = system: HL-60 cells; test: Cell survival assay (antiproliferative IC50); settings: Homo sapiens
[2] = system: COLO205 cells; test: Cell cycle distribution by flow cytometry; settings: 24 h; for Cell Cycle Distribution G0/G1 / Cell Cycle Distribution G2/M / Cell Cycle Distribution S: COLO205 cells, Table 12
Experimental: (§1) The human cancer cells (2×10^5) were cultured in 60-mm Petri dishes and incubated for 24 h. After treated with test compounds for 24 h, the cells were then harvested, washed with PBS resuspended in 200 μL of PBS, and fixed in 800 μL of iced 100% ethanol at −20° C. After being left to stand overnight, the cell pellets were collected by centrifugation, resuspended in 1 mL of hypotonic buffer (0.5% Triton X-100 in PBS and 0.5 μg/mL RNase) and incubated at 37° C. for 30 min. Next, 1 mL of propidium iodide solution (50 μg/mL) was added, and the mixture was allowed to stand on ice for 30 min. Fluorescence emitted from the propidium iodide-DNA complex was quantitated after excitation of the fluorescent dye by FACScan cytometry (Becton Dickinson, San Jose, Calif.).
(§2) The effects of the hydrolyzed PMF-enriched compositions, nobiletin and 70% PMF OPE on cell cycle distribution were studied, following the procedures described in Section 8.4. Results for cell cycle distribution in HL-60 cells, COLO205 cells and AGS cells are provided in Table 5, Table 6 and Table 7, respectively. […] In HL-60 cells, G2/M arrest predominated in cells treated with 6N PMF concentrations ≧5 μM and with 1N PMF concentrations ≧25 μM.
(§3) Compounds A-K were evaluated in terms of their effects in arresting cell cycle progression by observing cell cycle phase distribution in cells treated with the compounds. Cells were treated with 5, 10, 25, 50, and 100 μM of one of compound A-K or DMSO (control) for 24 h and subjected to flow cytometric analysis after staining their DNA, as described above.
(§4) Similar cell cycle phase distribution studies were performed in AGS, COLO205, and HT-29 cells in response to individual PMFs, with results reported in Tables 11, 12 and 13, respectively.

[3] = system: AGS cells; test: Cell cycle distribution by flow cytometry; settings: 24 h, Table 11
Experimental: as §1, §2, §3, §4

[4] = HL-60 cells, read-out: Antiproliferative IC50
[5] = HL-60, read-out: Antiproliferative IC50

| SMILES | Cell Cycle Distribution G0/G1 ([2]; 5 μM) | Cell Cycle Distribution G2/M ([2]; 5 μM) | Cell Cycle Distribution S ([2]; 5 μM) | Cell Cycle Distribution G0/G1 ([2]; 10 μM) | Cell Cycle Distribution G2/M ([2]; 10 μM) | Cell Cycle Distribution S ([2]; 10 μM) | Cell Cycle Distribution G0/G1 ([2]; 25 μM) | Cell Cycle Distribution G2/M ([2]; 25 μM) | Cell Cycle Distribution S ([2]; 25 μM) | Cell Cycle Distribution G0/G1 ([2]; 50 μM) | Cell Cycle Distribution G2/M ([2]; 50 μM) | Cell Cycle Distribution S ([2]; 50 μM) | Cell Cycle Distribution G0/G1 ([2]; 100 μM) | Cell Cycle Distribution G2/M ([2]; 100 μM) | Cell Cycle Distribution S ([2]; 100 μM) | Cell Cycle Distribution G0/G1 ([3]; 5 μM) | Cell Cycle Distribution G2/M ([3]; 5 μM) | Cell Cycle Distribution S ([3]; 5 μM) | Cell Cycle Distribution G0/G1 ([3]; 10 μM) | Cell Cycle Distribution G2/M ([3]; 10 μM) | further results |
| --- | --- | --- | --- | --- | --- | --- | --- | --- | --- | --- | --- | --- | --- | --- | --- | --- | --- | --- | --- | --- | --- |
| COc1cc(-c2cc(=O)c3c(O)c(OC)c(OC)c(OC)c3o2)cc(OC)c1OC [E, 5-hydroxy-6,7,8,3′,4′,5′-hexamethoxyflavone] | 67.66 ± 0.19 | 8.75 ± 0.17 | 23.60 ± 0.03 | 67.48 ± 0.59 | 8.29 ± 0.48 | 24.24 ± 0.11 | 67.40 ± 0.49 | 7.59 ± 1.18 | 25.02 ± 0.70 | 69.49 ± 2.62 | 6.59 ± 0.82 | 23.93 ± 1.80 | 69.99 ± 0.89 | 5.52 ± 0.90 | 24.50 ± 0.00 | 55.70 ± 0.14 | 15.88 ± 0.89 | 28.42 ± 0.75 | 56.96 ± 3.14 | 16.00 ± 0.55 | IC50 [1, 4]: > 100 µM; Cell Cycle Distribution S ([3]; 10 μM): 27.05 ± 2.60; Cell Cycle Distribution G0/G1 ([3]; 25 μM): 56.32 ± 2.62; Cell Cycle Distribution G2/M ([3]; 25 μM): 14.40 ± 2.38; Cell Cycle Distribution S ([3]; 25 μM): 29.25 ± 0.18; Cell Cycle Distribution G0/G1 ([3]; 50 μM): 54.53 ± 0.30; Cell Cycle Distribution G2/M ([3]; 50 μM): 15.69 ± 1.41; Cell Cycle Distribution S ([3]; 50 μM): 29.79 ± 1.10; Cell Cycle Distribution G0/G1 ([3]; 100 μM): 55.68 ± 0.46; Cell Cycle Distribution G2/M ([3]; 100 μM): 13.51 ± 0.17; Cell Cycle Distribution S ([3]; 100 μM): 30.82 ± 0.29 |
| COc1cc(-c2cc(=O)c3c(OC)c(OC)c(OC)c(OC)c3o2)cc(OC)c1OC [F, 5,6,7,8,3′,4′,5′-heptamethoxyflavone, reference compound] | 68.30 ± 1.36 | 8.71 ± 0.55 | 23.00 ± 0.80 | 71.96 ± 0.24 | 8.38 ± 0.43 | 19.67 ± 0.67 | 72.22 ± 0.54 | 9.80 ± 0.20 | 17.98 ± 0.74 | 76.39 ± 0.85 | 8.02 ± 0.50 | 15.60 ± 1.35 | 78.64 ± 0.34 | 8.65 ± 0.19 | 12.71 ± 0.52 | 58.22 ± 1.10 | 14.76 ± 0.94 | 27.02 ± 0.17 | 62.41 ± 6.13 | 14.56 ± 0.58 | IC50 [1, 4]: 47 ± 4 µM; Cell Cycle Distribution S ([3]; 10 μM): 23.04 ± 5.55; Cell Cycle Distribution G0/G1 ([3]; 25 μM): 62.24 ± 0.71; Cell Cycle Distribution G2/M ([3]; 25 μM): 15.34 ± 1.30; Cell Cycle Distribution S ([3]; 25 μM): 22.57 ± 2.21; Cell Cycle Distribution G0/G1 ([3]; 50 μM): 65.87 ± 0.93; Cell Cycle Distribution G2/M ([3]; 50 μM): 13.05 ± 0.98; Cell Cycle Distribution S ([3]; 50 μM): 21.08 ± 1.90; Cell Cycle Distribution G0/G1 ([3]; 100 μM): 64.22 ± 5.56; Cell Cycle Distribution G2/M ([3]; 100 μM): 13.92 ± 1.06; Cell Cycle Distribution S ([3]; 100 μM): 21.86 ± 4.50 |
| COc1c(OC)c(OC)c2c(=O)cc(-c3ccc(O)c(O)c3)oc2c1OC [H, 3′,4′-dihydroxy-5,6,7,8-tetramethoxyflavone] | 67.26 ± 0.45 | 8.17 ± 0.60 | 24.58 ± 0.15 | 66.67 ± 0.16 | 6.18 ± 0.63 | 27.16 ± 0.46 | 66.99 ± 1.32 | 6.89 ± 0.21 | 26.13 ± 1.11 | 64.49 ± 1.00 | 8.94 ± 1.12 | 26.57 ± 2.12 | 66.50 ± 0.06 | 6.98 ± 0.02 | 26.53 ± 0.08 | 62.78 ± 2.93 | 16.57 ± 1.93 | 20.66 ± 1.00 | 61.72 ± 2.76 | 17.39 ± 2.76 | IC50 [1, 5]: 71.2 ± 1.93 µM; Cell Cycle Distribution S ([3]; 10 μM): 20.89 ± 0.00; Cell Cycle Distribution G0/G1 ([3]; 25 μM): 63.91 ± 0.92; Cell Cycle Distribution G2/M ([3]; 25 μM): 16.82 ± 1.04; Cell Cycle Distribution S ([3]; 25 μM): 19.28 ± 0.12; Cell Cycle Distribution G0/G1 ([3]; 50 μM): 63.96 ± 1.65; Cell Cycle Distribution G2/M ([3]; 50 μM): 16.74 ± 2.15; Cell Cycle Distribution S ([3]; 50 μM): 19.31 ± 0.51; Cell Cycle Distribution G0/G1 ([3]; 100 μM): 68.04 ± 1.34; Cell Cycle Distribution G2/M ([3]; 100 μM): 22.69 ± 0.13; Cell Cycle Distribution S ([3]; 100 μM): 9.27 ± 1.46 |
| COc1ccc(-c2cc(=O)c3c(OC)c(OC)c(OC)c(OC)c3o2)cc1O [I, 3′-hydroxy-5,6,7,8,4′-pentamethoxyflavone] | 64.51 ± 1.26 | 6.46 ± 0.35 | 29.03 ± 1.61 | 64.14 ± 1.71 | 5.54 ± 0.41 | 30.32 ± 1.30 | 67.09 ± 0.57 | 5.43 ± 1.17 | 27.48 ± 0.62 | 68.03 ± 1.51 | 4.83 ± 1.48 | 27.15 ± 0.04 | 83.31 ± 1.06 | 0.02 ± 0.02 | 16.68 ± 1.04 | 57.25 ± 0.28 | 16.01 ± 0.21 | 26.74 ± 0.49 | 58.27 ± 0.96 | 17.94 ± 1.07 | IC50 [1, 5]: 52.72 ± 0.22 µM; Cell cycle arrest, in words ([2]; COLO 205 cells, compound A 50 μM, compound I 100 μM): trends in G1 arrest; Cell Cycle Distribution S ([3]; 10 μM): 23.79 ± 2.03; Cell Cycle Distribution G0/G1 ([3]; 25 μM): 49.07 ± 1.22; Cell Cycle Distribution G2/M ([3]; 25 μM): 16.15 ± 0.69; Cell Cycle Distribution S ([3]; 25 μM): 34.79 ± 1.90; Cell Cycle Distribution G0/G1 ([3]; 50 μM): 62.72 ± 1.27; Cell Cycle Distribution G2/M ([3]; 50 μM): 0.59 ± 0.74; Cell Cycle Distribution S ([3]; 50 μM): 36.70 ± 2.00; Cell Cycle Distribution G0/G1 ([3]; 100 μM): 69.35 ± 0.70; Cell Cycle Distribution G2/M ([3]; 100 μM): 12.65 ± 0.84; Cell Cycle Distribution S ([3]; 100 μM): 18.01 ± 0.14 |
| COc1ccc(-c2cc(=O)c3c(O)c(OC)c(OC)c(OC)c3o2)cc1OC [J, 5-hydroxy-6,7,8,3′,4′-pentamethoxyflavone] | 56.75 ± 1.52 | 7.41 ± 0.30 | 35.85 ± 1.22 | 59.63 ± 0.88 | 7.07 ± 0.86 | 31.99 ± 1.85 | 63.97 ± 0.56 | 6.38 ± 1.05 | 29.65 ± 1.61 | 64.90 ± 1.44 | 6.41 ± 0.13 | 28.69 ± 1.57 | 62.39 ± 2.98 | 7.05 ± 0.13 | 30.57 ± 2.84 | 58.65 ± 1.77 | 13.51 ± 1.20 | 27.84 ± 0.56 | 57.07 ± 1.02 | 13.84 ± 0.52 | IC50 [1, 4]: > 100 µM; Cell Cycle Distribution S ([3]; 10 μM): 29.09 ± 1.54; Cell Cycle Distribution G0/G1 ([3]; 25 μM): 58.84 ± 4.84; Cell Cycle Distribution G2/M ([3]; 25 μM): 14.00 ± 4.20; Cell Cycle Distribution S ([3]; 25 μM): 27.17 ± 0.64; Cell Cycle Distribution G0/G1 ([3]; 50 μM): 52.82 ± 3.22; Cell Cycle Distribution G2/M ([3]; 50 μM): 15.74 ± 0.11; Cell Cycle Distribution S ([3]; 50 μM): 31.45 ± 3.31; Cell Cycle Distribution G0/G1 ([3]; 100 μM): 58.11 ± 1.11; Cell Cycle Distribution G2/M ([3]; 100 μM): 12.71 ± 0.25; Cell Cycle Distribution S ([3]; 100 μM): 29.24 ± 1.28 |
